# Experiments:
# [1] = Toxicity in rat brain synaptosomes assessed as reduction in cell viability at 40 uM measured after 1 hr by MTT assay relative to control; format: subcellular, Synaptosome
# [2] = tested on: Brain; assay: Neuroprotective activity against 6-OHDA-induced oxidative stress in rat brain synaptosomes assessed as cell viability at 40 uM by MTT assay relative to control; format: functional, subcellular; details: Synaptosome
# [3] = Toxicity in rat brain synaptosomes assessed as effect on reduced glutathione level at 40 uM measured after 1 hr relative to control; format: subcellular, Synaptosome; details: in vitro
# [4] = tested on: Brain; assay: Neuroprotective activity against 6-OHDA-induced oxidative stress in rat brain synaptosomes assessed as GSH level at 40 uM relative to control; format: functional, subcellular; details: Synaptosome
# [5] = biological target: T1, Amine oxidase [flavin-containing] A (Homo sapiens, UniProt P21397); assay: Inhibition of MAOA (unknown origin)
# T1 sequence (P21397 whole entry): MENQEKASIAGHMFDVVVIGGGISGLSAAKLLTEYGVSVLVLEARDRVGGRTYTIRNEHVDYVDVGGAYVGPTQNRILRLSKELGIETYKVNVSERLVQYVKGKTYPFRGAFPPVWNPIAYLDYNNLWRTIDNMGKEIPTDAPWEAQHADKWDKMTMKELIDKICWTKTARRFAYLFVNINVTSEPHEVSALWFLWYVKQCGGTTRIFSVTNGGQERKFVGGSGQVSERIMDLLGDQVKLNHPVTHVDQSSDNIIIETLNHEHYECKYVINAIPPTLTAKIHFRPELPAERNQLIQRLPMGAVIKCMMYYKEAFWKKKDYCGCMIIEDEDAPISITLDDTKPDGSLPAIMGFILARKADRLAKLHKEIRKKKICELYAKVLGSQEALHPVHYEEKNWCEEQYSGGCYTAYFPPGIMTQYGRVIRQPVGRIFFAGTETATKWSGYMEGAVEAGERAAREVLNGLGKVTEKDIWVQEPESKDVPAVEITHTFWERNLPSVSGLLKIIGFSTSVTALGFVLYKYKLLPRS
SMILES,Activity [1],Activity [2] [%],Activity [3],Activity [4] [%],inhibition (INH) [5]
COc1ccc(C(=O)N/N=C/c2ccc(Cl)cc2Cl)cc1OC,20%,56,25%,70,
COc1ccc2[nH]cc(/C=N\NC(=O)c3ccc(Cl)cc3)c2c1,20%,67,25%,60,
c1ccc(-c2nnc(-c3c[nH]c4ccccc34)o2)cc1,Non-Toxic,56,Non-Toxic,70,Active
COc1ccc2[nH]cc(/C=N\NC(=O)c3ccoc3)c2c1,20%,67,25%,70,
Clc1ccc(-c2nnc(-c3ccccc3)o2)cc1,Non-Toxic,66,Non-Toxic,60,Active
COc1ccc2[nH]cc(/C=N\NC(=O)c3snnc3C)c2c1,15%,67,25%,60,
COc1ccc2[nH]cc(/C=N\NC(=O)c3c[nH]c4ccccc34)c2c1,20%,56,25%,70,
COc1ccc(C(=O)N/N=C/c2ccc(Cl)cc2Cl)cc1O,20%,56,25%,70,
COc1ccc2[nH]cc(/C=N\NC(=O)Cc3c[nH]c4ccccc34)c2c1,20%,56,25%,60,

# From ChEMBL document CHEMBL5131422, “Neuroprotective evaluation of novel substituted 1,3,4-oxadiazole and aroylhydrazone derivatives” (Bioorg Med Chem Lett, 2022)
